Reference: patent publication US7008953B2, “3, 5 Disubstituted indazole compounds, pharmaceutical compositions, and methods for mediating or inhibiting cell proliferation” (Agouron Pharmaceuticals, Inc., priority 2003, dated 2006)
Each block holds one compound with its values, some of them ahead of it.

How the values were obtained:
HCT 116 cell line = experiment: Inhibition of cell growth, MTT tetrazolium salt assay; format: cell-based; conditions: Homo sapiens, 50% inhibition of growth
Protocol: Inhibition of cell growth was measured using the tetrazolium salt assay, which is based on the ability of viable cells to reduce 3-(4,5-dimethylthiazol-2-yl)-2,5-[2H]-diphenyltetrazolium bromide (MTT) to formazan (Mossman, Journal of Immunological Methods, vol. 65 (1983), pp. 55–58). The water-insoluble purple formazan product was then detected spectrophotometrically. The HCT 116 cell line was grown in 96-well plates. Cells were plated in the appropriate medium at a volume of 135 μl/well in McCoy's 5A Medium. Plates were incubated for four hours before addition of inhibitor compounds. Different concentrations of inhibitor compounds were added in 0.5% (v/v) dimethylsulfoxide (15 μL/well), and cells were incubated at 37° C. (5% CO2) for four to six days (depending on cell type). At the end of the incubation, MTT was added to a final concentration of 0.2 mg/mL, and cells were incubated for 4 hours more at 37° C. After centrifugation of the plates and removal of medium, the absorbance of the formazan (solubilized in dimethylsulfoxide) was measured at 540 nm. The concentration of inhibitor compound causing 50% inhibition of growth was determined from the linear portion of a semi-log plot of inhibitor concentration versus percentage inhibition. All results were compared to control cells treated only with 0.5% (v/v) dimethylsulfoxide.

[1] = biological target: dual serine/threonine/tyrosine kinase (DYRK1A) (Homo sapiens, UniProt Q13627); experiment: Panel of protein kinases: DYRK1A; format: biochemical; conditions: method of Davies et al.
Protocol: (§1) The compounds of the present invention were screened against a large panel of protein kinase to determine inhibition activity for CDK as against a variety of protein kinases. The assay was conducted using methods and materials described by Davies, S et al. Specificity and Mechanism of Action of Some Commonly Used Protein Kinase Inhibitors, Biochem J. 351, 95–105 (2000), the contents of which are herein incorporated by reference. The compounds were screened against a panel of protein kinases which include AMP-activiated protein kinase (AMPK), checkpoint kinase (CHK1), casein kinases 1 and 2 (CK1 and CK2), cytoplasmic tyrosine kinase (CSK), dual serine/threonine/tyrosine kinase (DYRK1A), glycogen synthase kinase 3 (GSK3B), c-Jun N-terminal kinase (JNK), lymphocyte kinase (LCK), mitogen-activated protein kinases 2, K-1a, K2 (MAPK2, MAPKAP-K1a, and MAPKAP-K2), MAPK kinase (MKK1, also called MEK), mitogen and stress-activated protein kinase 1 (MSK1), never-in-mitosis kinase 6 (NEK6), p70 ribosomal protein S6 kinase (P70s6K1), 3-phosphoinositide-dependent protein kinase 1 (PDK1), phosphorylase kinase (PHK), protein kinase A (PKA), protein kinase B (PKB, also called Akt), protein kinase C (PKCa), p38-regulated/activated kinase (PRAK), Rho-dependent protein kinase (ROCK-II), stress-activated protein kinase 2a, 2b, 3 and 4 (SAPK-2A or p38, SAPK-2b or p38β2, SAPK3 or p38γ, SAPK4 or p38δ, respectively), and serum- and glucocorticoid-induced kinase (SGK). Compound activity was grouped into categories of weak (<50%), moderate (50–75%) and strong inhibition (>75%).

[2] = biological target: mitogen-activated protein kinase 2 (MAPK2) (Homo sapiens, UniProt P28482); experiment: Panel of protein kinases: MAPK2; format: biochemical; conditions: method of Davies et al.
Protocol: as §1

MAPKAP-K2 = MAPKAP-K2 (Homo sapiens, UniProt P49137); experiment: Panel of protein kinases: MAPKAP-K2; format: biochemical; conditions: method of Davies et al.
Protocol: as §1

[3] = biological target: mitogen and stress-activated protein kinase 1 (MSK1) (Homo sapiens, UniProt O75582); experiment: Panel of protein kinases: MSK1; format: biochemical; conditions: method of Davies et al.
Protocol: as §1

[4] = biological target: phosphorylase kinase (PHK) (Oryctolagus cuniculus, UniProt P00518); experiment: Panel of protein kinases: PHK; format: biochemical; conditions: method of Davies et al.
Protocol: as §1

protein kinase A (PKA) = protein kinase A (PKA) (Bos taurus, UniProt P00517); experiment: Panel of protein kinases: PKA; format: biochemical; conditions: method of Davies et al.
Protocol: as §1

[5] = biological target: T1, p38-regulated/activated kinase (PRAK) (Homo sapiens, UniProt Q8IW41); experiment: Panel of protein kinases: PRAK; format: biochemical; conditions: method of Davies et al.
T1 sequence (Q8IW41 1-473): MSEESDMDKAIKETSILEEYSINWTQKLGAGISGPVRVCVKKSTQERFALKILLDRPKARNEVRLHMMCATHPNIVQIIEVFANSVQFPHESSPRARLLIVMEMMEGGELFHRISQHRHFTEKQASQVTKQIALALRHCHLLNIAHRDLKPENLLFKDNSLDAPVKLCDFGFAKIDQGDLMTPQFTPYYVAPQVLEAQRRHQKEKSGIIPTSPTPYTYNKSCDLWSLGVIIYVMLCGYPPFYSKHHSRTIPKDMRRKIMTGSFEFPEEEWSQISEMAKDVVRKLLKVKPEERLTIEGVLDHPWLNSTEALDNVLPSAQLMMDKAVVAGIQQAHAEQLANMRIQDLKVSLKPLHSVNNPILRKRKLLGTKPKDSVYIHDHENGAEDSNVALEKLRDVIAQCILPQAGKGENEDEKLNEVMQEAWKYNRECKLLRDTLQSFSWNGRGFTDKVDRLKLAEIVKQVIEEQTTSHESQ
Protocol: as §1

Sequence of MAPKAP-K2 (P49137 whole entry, species assumed): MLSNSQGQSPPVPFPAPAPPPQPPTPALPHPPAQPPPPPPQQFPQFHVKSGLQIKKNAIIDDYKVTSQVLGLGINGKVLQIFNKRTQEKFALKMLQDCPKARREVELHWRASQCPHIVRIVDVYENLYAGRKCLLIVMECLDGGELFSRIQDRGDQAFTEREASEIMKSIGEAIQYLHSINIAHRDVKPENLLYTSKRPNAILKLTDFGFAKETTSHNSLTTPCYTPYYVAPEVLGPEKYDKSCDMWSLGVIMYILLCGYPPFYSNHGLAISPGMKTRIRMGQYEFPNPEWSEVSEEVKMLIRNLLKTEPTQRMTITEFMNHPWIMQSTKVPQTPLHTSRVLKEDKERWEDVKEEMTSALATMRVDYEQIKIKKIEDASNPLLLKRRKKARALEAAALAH
Sequence of mitogen-activated protein kinase 2 (MAPK2) (P28482 whole entry): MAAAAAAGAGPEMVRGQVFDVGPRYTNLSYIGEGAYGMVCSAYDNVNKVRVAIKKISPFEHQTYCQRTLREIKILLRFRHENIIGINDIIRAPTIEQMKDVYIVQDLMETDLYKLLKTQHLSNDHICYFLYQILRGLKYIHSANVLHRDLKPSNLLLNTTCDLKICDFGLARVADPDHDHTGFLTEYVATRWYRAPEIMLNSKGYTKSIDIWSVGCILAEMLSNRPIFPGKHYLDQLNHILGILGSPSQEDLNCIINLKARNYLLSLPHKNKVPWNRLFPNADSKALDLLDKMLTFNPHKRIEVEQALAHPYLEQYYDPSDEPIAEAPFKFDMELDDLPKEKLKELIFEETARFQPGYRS
Sequence of mitogen and stress-activated protein kinase 1 (MSK1) (O75582 whole entry, species assumed): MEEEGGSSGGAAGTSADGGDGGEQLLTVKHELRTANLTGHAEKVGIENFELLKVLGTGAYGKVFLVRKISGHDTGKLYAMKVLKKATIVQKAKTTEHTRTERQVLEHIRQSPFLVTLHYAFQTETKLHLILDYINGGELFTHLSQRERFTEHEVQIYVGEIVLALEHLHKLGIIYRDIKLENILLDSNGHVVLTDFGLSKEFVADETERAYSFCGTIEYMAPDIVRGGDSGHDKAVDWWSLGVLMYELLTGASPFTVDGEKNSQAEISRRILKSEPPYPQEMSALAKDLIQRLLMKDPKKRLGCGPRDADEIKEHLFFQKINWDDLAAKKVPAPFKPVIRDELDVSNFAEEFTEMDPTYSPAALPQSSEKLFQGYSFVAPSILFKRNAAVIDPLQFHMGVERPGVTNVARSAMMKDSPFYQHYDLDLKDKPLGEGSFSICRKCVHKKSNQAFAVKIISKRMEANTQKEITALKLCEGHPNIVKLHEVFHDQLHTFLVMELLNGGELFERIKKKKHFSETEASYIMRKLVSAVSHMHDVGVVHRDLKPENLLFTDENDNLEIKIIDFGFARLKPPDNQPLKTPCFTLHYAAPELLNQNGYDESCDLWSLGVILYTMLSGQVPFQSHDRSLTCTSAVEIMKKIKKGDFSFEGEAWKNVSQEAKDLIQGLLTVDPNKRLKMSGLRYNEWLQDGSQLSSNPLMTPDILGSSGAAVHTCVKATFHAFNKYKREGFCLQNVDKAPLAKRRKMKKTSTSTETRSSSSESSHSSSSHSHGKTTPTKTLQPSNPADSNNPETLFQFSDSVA

Structure (SMILES): CCNCc1cncc(-c2ccc3[nH]nc(-c4nc5ccccc5[nH]4)c3c2)c1C [A]
IC50 (HCT 116 cell line): 70 nM | Kinase DYRK1A inhibition [1]: ++ (Strong inhibition >75%) | Kinase MAPK2 inhibition [2]: − (Weak inhibition <50%) | Kinase MAPKAP-K2 inhibition (MAPKAP-K2): − (Weak inhibition <50%) | Kinase MSK1 inhibition [3]: − (Weak inhibition <50%) | Kinase PHK inhibition [4]: ++ (Strong inhibition >75%) | Kinase PKA inhibition (protein kinase A (PKA)): ++ (Strong inhibition >75%) | Kinase PRAK inhibition [5]: ++ (Strong inhibition >75%)

Structure (SMILES): CCNCc1cncc(-c2ccc3[nH]nc(-c4nc5c(C(=O)NC)cccc5[nH]4)c3c2)c1C [B]
IC50 (HCT 116 cell line): 90 nM | Kinase DYRK1A inhibition [1]: ++ (Strong inhibition >75%) | Kinase MAPK2 inhibition [2]: − (Weak inhibition <50%) | Kinase MAPKAP-K2 inhibition (MAPKAP-K2): − (Weak inhibition <50%) | Kinase MSK1 inhibition [3]: − (Weak inhibition <50%) | Kinase PHK inhibition [4]: + (Moderate inhibition 50–75%) | Kinase PKA inhibition (protein kinase A (PKA)): ++ (Strong inhibition >75%) | Kinase PRAK inhibition [5]: + (Moderate inhibition 50–75%)

Structure (SMILES): CCNCc1cncc(-c2ccc3[nH]nc(-c4nc5c(SC)cccc5[nH]4)c3c2)c1C [C]
IC50 (HCT 116 cell line): 86 nM | Kinase DYRK1A inhibition [1]: ++ (Strong inhibition >75%) | Kinase MAPK2 inhibition [2]: − (Weak inhibition <50%) | Kinase MAPKAP-K2 inhibition (MAPKAP-K2): − (Weak inhibition <50%) | Kinase MSK1 inhibition [3]: − (Weak inhibition <50%) | Kinase PHK inhibition [4]: + (Moderate inhibition 50–75%) | Kinase PKA inhibition (protein kinase A (PKA)): + (Moderate inhibition 50–75%) | Kinase PRAK inhibition [5]: ++ (Strong inhibition >75%)

Structure (SMILES): CCNCc1cncc(-c2ccc3[nH]nc(-c4nc5c(NC(C)=O)cccc5[nH]4)c3c2)c1C [D]
IC50 (HCT 116 cell line): > 500 nM | Kinase DYRK1A inhibition [1]: ++ (Strong inhibition >75%) | Kinase MAPK2 inhibition [2]: − (Weak inhibition <50%) | Kinase MAPKAP-K2 inhibition (MAPKAP-K2): − (Weak inhibition <50%) | Kinase MSK1 inhibition [3]: − (Weak inhibition <50%) | Kinase PHK inhibition [4]: − (Weak inhibition <50%) | Kinase PKA inhibition (protein kinase A (PKA)): − (Weak inhibition <50%) | Kinase PRAK inhibition [5]: + (Moderate inhibition 50–75%)

Structure (SMILES): CCNCc1cncc(-c2ccc3[nH]nc(-c4nc5c(F)cc(F)cc5[nH]4)c3c2)c1C [Example 1, {5-[3-(4,6-Difluoro-1H-benzoimidazol-2-yl)-1H-indazol-5-yl]-4-methyl-pyridin-3-ylmethyl}-ethyl-amine]
IC50 (HCT 116 cell line): 120 nM | Kinase DYRK1A inhibition [1]: ++ (Strong inhibition >75%) | Kinase MAPK2 inhibition [2]: − (Weak inhibition <50%) | Kinase MAPKAP-K2 inhibition (MAPKAP-K2): − (Weak inhibition <50%) | Kinase MSK1 inhibition [3]: − (Weak inhibition <50%) | Kinase PHK inhibition [4]: + (Moderate inhibition 50–75%) | Kinase PKA inhibition (protein kinase A (PKA)): − (Weak inhibition <50%) | Kinase PRAK inhibition [5]: − (Weak inhibition <50%)

IC50 (HCT 116 cell line): 22 nM | Kinase DYRK1A inhibition [1]: ++ (Strong inhibition >75%) | Kinase MAPK2 inhibition [2]: − (Weak inhibition <50%) | Kinase MAPKAP-K2 inhibition (MAPKAP-K2): − (Weak inhibition <50%) | Kinase MSK1 inhibition [3]: − (Weak inhibition <50%) | Kinase PHK inhibition [4]: ++ (Strong inhibition >75%) | Kinase PKA inhibition (protein kinase A (PKA)): − (Weak inhibition <50%) | Kinase PRAK inhibition [5]: − (Weak inhibition <50%)
Structure (SMILES): CCNCc1cncc(-c2ccc3[nH]nc(-c4nc5cc(F)ccc5[nH]4)c3c2)c1C [Example 2, Ethyl-{5-[3-(5-fluoro-1H-benzoimidazol-2-yl)-1H-indazol-5-yl]-4-methyl-pyridin-3-ylmethyl}-amine]
